These results are taken from patent US11541049B2, “Tetrahydroisoquinoline derivatives, preparation process and use thereof” (SICHUAN KELUN-BIOTECH BIOPHARMACEUTICAL CO., LTD., priority 2018, dated 2023).

Each structure is given as a SMILES string.

Data set [1] concerns SD rats. Description: Single dose toxicity study in SD rats, intravenous infusion. Conditions: 50, 75, 100, 150, 200 mg/kg, intravenous infusion (2 ml/min).
Description: The clinical observation was carried out for 7 days after a single dose, and the body weight of the animals were measured. On the 8th day, blood samples were taken after anesthesia for detection of hematology, blood biochemistry, coagulation and other indicators. Observation was also conducted by gross anatomy.
The target in data set [2] is human coagulation factor XIa (Homo sapiens (Human), UniProt P03951). As to the kind of experiment: Inhibition of coagulation factor XIa (fluorogenic substrate, enzyme kinetic mode). In kind it is biochemical. How it is done:
The following procedures can be used to determine the in vitro inhibition of human coagulation factor XIa by the compound of the present disclosure, as indicated by IC50.
Enzyme: human coagulation factor XIa; manufacturer: Haemtech;
Substrate: Boc-Ile-Glu-Gly-Arg-AMC Acetate salt; manufacturer: Bachem;
Reaction buffer: 50 mM HEPES, 145 mM NaCl, 5 mM KCl, 0.1% BSA, pH 7.4;
The test compounds were dissolved in reaction buffer at different concentrations. 4 μl of coagulation factor XIa and 4 μl of the test compound were added to a 384 well plate, incubated at room temperature for 10 minutes after mixed thoroughly, and then 4 μl of substrate was added to initiate the reaction. For reading fluorescence signal value, enzyme kinetic mode was used. The wavelength of excitation light was selected to be 380 nm, and the wavelength of emission light was selected to be 460 nm. Read once per 30 seconds, and continuously read 20 cycles. Linear regression analysis of signal value-time was performed during the linear reaction period, and the slope was the reaction rate, and the enzyme activity inhibition rate was calculated according to the following formula. The half inhibitory concentration IC50 values of the compound were fitted using GraphPad Prism 5 software, and results are shown in Table 1. Inhibition rate %=(V0−Vi)/(V0−Vblank)×100.
In the formula: V0 is the reaction rate of the control well (using the same volume of reaction buffer without adding test compound), Vi is the reaction rate of test compound, Vblank is a blank well (using the same volume of reaction buffer without adding either enzyme or test compound).

Broadly, the IC50 is the midpoint of a concentration-inhibition curve. Low values mean inhibition by little substance, high ones a need for much substance.

Sequence of human coagulation factor XIa (P03951 388-625): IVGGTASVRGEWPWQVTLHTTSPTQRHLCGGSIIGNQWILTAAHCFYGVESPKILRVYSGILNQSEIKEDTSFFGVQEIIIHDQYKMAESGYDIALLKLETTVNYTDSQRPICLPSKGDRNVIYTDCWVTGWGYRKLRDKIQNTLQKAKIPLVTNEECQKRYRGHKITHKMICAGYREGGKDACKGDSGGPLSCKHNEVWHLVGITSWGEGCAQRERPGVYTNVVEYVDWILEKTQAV
Sequence of human coagulation factor XIa (P03951 19-387): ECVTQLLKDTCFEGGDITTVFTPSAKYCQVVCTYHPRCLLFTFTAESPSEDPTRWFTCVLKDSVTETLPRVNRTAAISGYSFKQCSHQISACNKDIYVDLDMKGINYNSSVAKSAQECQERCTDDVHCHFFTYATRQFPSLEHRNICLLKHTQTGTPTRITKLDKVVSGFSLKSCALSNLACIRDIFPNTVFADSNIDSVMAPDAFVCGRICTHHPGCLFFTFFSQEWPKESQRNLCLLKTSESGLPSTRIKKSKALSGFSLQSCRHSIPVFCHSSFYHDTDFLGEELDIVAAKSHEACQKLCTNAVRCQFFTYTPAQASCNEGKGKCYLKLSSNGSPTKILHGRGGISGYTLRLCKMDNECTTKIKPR

As to `N[C@@H](CCCCNC(=O)CN1CC=C(c2cccc3c2CCN(C(=O)[C@H]2CC(c4cccc(Cl)c4F)=NO2)[C@@H]3C(=O)Nc2ccc(C(=O)O)cc2)CC1)C(=O)O` [Example 5, 4-((S)-5-(1-(2-(((S)-5-amino-5-carboxypentyl)amino)-2-oxoethyl)-1,2,3,6-tetrahydropyridin-4-yl)-2-((R)-3-(3-chloro-2-fluorophenyl)-4,5-dihydroisoxazole-5-carbonyl)-1,2,3,4-tetrahydroisoquinoline-1-carboxamido)benzoic acid], in data set [1], the “Single dose toxicity study in SD rats: observation” value is recorded as “No abnormality was found”. The compound also gave an IC50 in data set [2] of 0.16 ± 0.02 nM.
